Values quoted from earlier work, collected in patent US9447122B2, “Arginase inhibitors and methods of use thereof” (AstraZeneca AB, priority 2010, dated 2016).

How the values were obtained:
arginase = biological target: T1, arginase (Homo sapiens, UniProt P78540); conditions: literature; cited from earlier work
T1 sequence (P78540 23-354): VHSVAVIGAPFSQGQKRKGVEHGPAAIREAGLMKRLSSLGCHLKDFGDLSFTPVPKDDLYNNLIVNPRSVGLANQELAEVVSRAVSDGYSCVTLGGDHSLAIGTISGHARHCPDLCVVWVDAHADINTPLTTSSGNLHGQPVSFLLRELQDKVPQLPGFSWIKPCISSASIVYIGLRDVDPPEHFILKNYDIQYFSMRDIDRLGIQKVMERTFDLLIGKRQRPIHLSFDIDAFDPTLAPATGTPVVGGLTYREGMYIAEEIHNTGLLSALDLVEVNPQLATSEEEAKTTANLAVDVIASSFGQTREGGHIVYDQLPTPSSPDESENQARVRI

humans = conditions: subcutaneous administration; cited from earlier work

N[C@@H](CSCCB(O)O)C(=O)O [BEC, S-(2-boronoethyl)-L-cysteine]
inhibitory potency at pH 7.5 vs pH 9.5 (arginase): much lower at pH 7.5 than at pH 9.5 | vasodilation and circulation (humans): vasodilatory and enhances circulation
